Laboratory results: US7767659B2, “Synthesis of naturally occurring ecteinascidins and related compounds” (Pharma Mar, S.A., priority 2002, dated 2010)

Columns and labels:
[1] = test system: DU-145; assay: Inhibition of cells growth by colorimetric assay (SRB); details: Homo sapiens, DU-145, 48 h; for GI50: read-out: DU145 GI50; for CC50: read-out: DU145 LC50; for IC (TGI): read-out: DU145 TGI
Outline: (§1)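 Colorimetric SRB read (490 nm) on triplicate wells after 48 h at 37 °C, 5% CO2. Dose range 10 to 10^−8 μg/ml; 5×10^3 cells/well pre-attached 18 h.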

[2] = test system: IGROV-ET; assay: as above; details: Homo sapiens, 48 h; for GI50: read-out: IGROV-ET GI50; for CC50: read-out: IGROV-ET LC50; for IC (TGI): read-out: IGROV-ET TGI
Outline: as §1

[3] = test system: LoVo-Dox; assay: as above; details: Homo sapiens, 48 h; for GI50: read-out: LOVO-DOX GI50; for CC50: read-out: LOVO-DOX LC50; for IC (TGI): read-out: LOVO-DOX TGI
Outline: as §1

[4] = test system: K-562; assay: as above; details: Homo sapiens, K562, 48 h; for GI50: read-out: K562 GI50; for CC50: read-out: K562 LC50; for IC (TGI): read-out: K562 TGI
Outline: as §1

[5] = test system: IGROV-1; assay: as above; details: Homo sapiens, IGROV-1, 48 h; for GI50: read-out: IGROV GI50; for CC50: read-out: IGROV LC50; for IC (TGI): read-out: IGROV TGI
Outline: as §1

[6] = test system: HeLa; assay: as above; details: Homo sapiens, HeLa, 48 h; for GI50: read-out: HELA GI50; for CC50: read-out: HELA LC50; for IC (TGI): read-out: HELA TGI
Outline: as §1

[7] = test system: SK-MEL-28; assay: as above; details: Homo sapiens, SK-MEL-28, 48 h; for GI50: read-out: MEL-28 GI50; for CC50: read-out: MEL-28 LC50; for IC (TGI): read-out: MEL-28 TGI
Outline: as §1

[8] = test system: LNCaP; assay: as above; details: Homo sapiens, LNCaP, 48 h; for GI50: read-out: LNCAP GI50; for CC50: read-out: LNCAP LC50; for IC (TGI): read-out: LNCAP TGI
Outline: as §1

[9] = test system: PANC-1; assay: as above; details: Homo sapiens, PANC-1, 48 h; for GI50: read-out: PANC-1 GI50; for CC50: read-out: PANC-1 LC50; for IC (TGI): read-out: PANC-1 TGI
Outline: as §1

[10] = test system: SK-BR-3; assay: as above; details: Homo sapiens, SK-BR-3, 48 h; for GI50: read-out: SK-BR3 GI50; for CC50: read-out: SK-BR3 LC50; for IC (TGI): read-out: SK-BR3 TGI
Outline: as §1

[11] = test system: HeLa-APL; assay: as above; details: Homo sapiens, 48 h; for GI50: read-out: HELA-APL GI50; for CC50: read-out: HELA-APL LC50; for IC (TGI): read-out: HELA-APL TGI
Outline: as §1

[12] = test system: HT-29; assay: cells; details: Homo sapiens, HT-29, 48 h; for GI50: read-out: HT29 GI50; for CC50: read-out: HT29 LC50; for IC (TGI): read-out: HT29 TGI
Outline: as §1

[13] = test system: A-549; assay: cells; details: Homo sapiens, A549, 48 h; for GI50: read-out: A549 GI50; for CC50: read-out: A549 LC50; for IC (TGI): read-out: A549 TGI
Outline: as §1

[14] = test system: LoVo; assay: cells; details: Homo sapiens, LoVo, 48 h; for GI50: read-out: LOVO GI50; for CC50: read-out: LOVO LC50; for IC (TGI): read-out: LOVO TGI
Outline: as §1

C=CCN1[C@@H]2c3c(cc(C)c(OC)c3O)C[C@H]1[C@H](C#N)N1C2[C@@H]2SC[C@]3(NCCc4c3[nH]c3ccc(C)cc43)C(=O)OC[C@H]1c1c3c(c(C)c(OC(C)=O)c12)OCO3 (stereo partly drawn) [compound 58]
GI50 [1]: 46.8 nM | CC50 [1]: 12.4 µM | IC (TGI) [1]: 0.0888 µM | GI50 [2]: 188 nM | CC50 [2]: 0.949 µM | IC (TGI) [2]: 0.422 µM | GI50 [3]: 483 nM | CC50 [3]: 12.4 µM | IC (TGI) [3]: 2.26 µM | GI50 [4]: 26.4 nM | CC50 [4]: 12.4 µM | IC (TGI) [4]: 0.0942 µM | GI50 [5]: 93.9 nM | CC50 [5]: 1.04 µM | IC (TGI) [5]: 0.305 µM | GI50 [6]: 39.4 nM | CC50 [6]: 165 nM | IC (TGI) [6]: 0.0708 µM | GI50 [7]: 241 nM | CC50 [7]: 969 nM | IC (TGI) [7]: 0.469 µM | GI50 [8]: 29.9 nM | CC50 [8]: 240 nM | IC (TGI) [8]: 0.0716 µM | GI50 [9]: 379 nM | CC50 [9]: 12.4 µM | IC (TGI) [9]: 1.27 µM | GI50 [10]: 20.9 nM | CC50 [10]: 2550 nM | IC (TGI) [10]: 0.075 µM | GI50 [11]: 61 nM | CC50 [11]: 1160 nM | IC (TGI) [11]: 0.19 µM | GI50 [12]: 297 nM | CC50 [12]: 12.4 µM | IC (TGI) [12]: 1.54 µM | GI50 [13]: 216 nM | CC50 [13]: 1240 nM | IC (TGI) [13]: 0.517 µM | GI50 [14]: 139 nM | CC50 [14]: 0.581 µM | IC (TGI) [14]: 0.285 µM

C=CCN1[C@@H]2c3c(cc(C)c(OC)c3O)C[C@H]1[C@H](C#N)N1C2[C@@H]2SC[C@]3(NCCc4cc(OC(=O)OC(C)(C)C)c(OC)cc43)C(=O)OC[C@H]1c1c3c(c(C)c(O)c12)OCO3 (stereo partly drawn) [compound 46]
GI50 [1]: 23.4 nM | CC50 [1]: 0.105 µM | IC (TGI) [1]: 0.0496 µM | GI50 [2]: 285 nM | CC50 [2]: 11.7 µM | IC (TGI) [2]: 1.35 µM | GI50 [3]: 426 nM | CC50 [3]: 11.7 µM | IC (TGI) [3]: 1.35 µM | GI50 [4]: 23 nM | CC50 [4]: 4.25 µM | IC (TGI) [4]: 0.0648 µM | GI50 [5]: 29.9 nM | CC50 [5]: 11.7 µM | IC (TGI) [5]: 0.0724 µM | GI50 [6]: 26.4 nM | CC50 [6]: 97.4 nM | IC (TGI) [6]: 0.0501 µM | GI50 [7]: 29.6 nM | CC50 [7]: 107 nM | IC (TGI) [7]: 0.0564 µM | GI50 [8]: 14.7 nM | CC50 [8]: 59.2 nM | IC (TGI) [8]: 0.0296 µM | GI50 [9]: 61.9 nM | CC50 [9]: 11.7 µM | IC (TGI) [9]: 0.398 µM | GI50 [10]: 18.6 nM | CC50 [10]: 247 nM | IC (TGI) [10]: 0.0532 µM | GI50 [11]: 27.7 nM | CC50 [11]: 97.8 nM | IC (TGI) [11]: 0.052 µM | GI50 [12]: 42.9 nM | CC50 [12]: 11.7 µM | IC (TGI) [12]: 0.117 µM | GI50 [13]: 28.9 nM | CC50 [13]: 2770 nM | IC (TGI) [13]: 0.0618 µM | GI50 [14]: 55.3 nM | CC50 [14]: 11.7 µM | IC (TGI) [14]: 0.304 µM
